Patent US9453026B2, “ACC inhibitors and uses thereof” (Gilead Apollo, Inc., priority 2011, dated 2016)
Like-named read-outs stand apart in the source and are kept apart here.

Tests used:
[1] = tested on: C. albicans ATCC 90028; test: Anti-Fungal Activity Assay (broth microtiter MIC); assay type: cell-based; details: 3 replicates, test compounds read at 48 h
[2] = tested on: C. krusei ATCC 6258; test: Anti-Fungal Activity Assay (broth microtiter MIC); assay type: cell-based; details: 3 replicates, test compounds read at 48 h
[3] = tested on: C. parapsilosis ATCC 22019; test: Anti-Fungal Activity Assay (broth microtiter MIC); assay type: cell-based; details: 3 replicates, test compounds read at 48 h
[4] = Respiratory Quotient Measurement Assay; assay type: in vivo, Sprague-Dawley rats; details: rats, FIG. 9 and FIG. 10
Method: Compounds of the present invention were also assayed in a Respiratory Quotient Measurement Assay, as described by Harwood et al. “Isozyme-nonselective N-Substituted Bipiperidylcarboxamide Acetyl-CoA Carboxylase Inhibitors Reduce Tissue Malonyl-CoA Concentrations, Inhibit Fatty Acid Synthesis, and Increase Fatty Acid Oxidation in Cultured Cells and in Experimental Animals” Journal of Biological Chemistry (2008) 278, 37099-37111. An exemplary procedure for the assay, which measures the ratio of carbon dioxide production to oxygen consumption in rats, follows.
Male Sprague-Dawley rats (350-400 g) housed under standard laboratory conditions, either fed chow, fasted, or fasted and refed a diet high in sucrose for 2 days prior to experimentation were removed from their home cages, weighed, and placed into sealed chambers (43″43″10 cm) of the calorimeter (one rat per chamber). The chambers were placed in activity monitors. The calorimeter was calibrated before each use, air flow rate was adjusted to 1.6 liters/min, and the system settling and sampling times were set to 60 and 15 s, respectively. Base-line oxygen consumption, CO2 production, and ambulatory activity were measured every 10 min for up to 3 h before treatment. […]

[5] = High sucrose diet DIO study, plasma cholesterol and triglycerides; assay type: in vivo, Sprague Dawley rats; details: for Plasma Cholesterol / Plasma Triglycerides: high sucrose-fed DIO rats, mean ± SEM, n=14
Method: The compounds of the present invention are readily adapted to clinical use as anti-obesity agents, insulin sensitizing agents, hyperinsulinemia-reversing agents, and hepatic steatosis-reversing agents. Such activity was determined by assessing the amount of test compound that reduces body weight and percentage body fat, reduces plasma insulin levels, blunts the rise and/or accelerates the reduction in plasma insulin and glucose levels in response to an oral glucose challenge, and reduces hepatic lipid content relative to a control vehicle without test compound in mammals. Sprague Dawley rats were fed either chow, a diet high in sucrose (for example AIN76A rodent diet; Research diets Inc. Cat #10001) or a diet high in fat (for example Research diets Inc. Cat #12451), for from 3-8 weeks prior to and during test compound administration.
For example, after a 3-8 week period of ad libitum feeding of either a chow, high-fat, or high-sucrose diet, animals that continued to receive the diet were treated for 1-8 weeks with test compound administered either by oral gavage in water or saline or water or saline containing 0.5% methylcelluose using a Q.D., B.I.D, or T.I.D. dosing regimen. At various times during study and at sacrifice (by CO2 asphyxiation), blood was collected either from the tail vein of an unanesthesized rat or from the vena cava of animals at sacrifice into heparin or EDTA containing tubes for centrifugal separation to prepare plasma. Plasma levels of parameters of lipid and carbohydrate metabolism known by those skilled in the art to be altered coincident with anti-obesity, insulin sensitizing, hyperinsulinemia-reversing, and hepatic steatosis-reversing actions, including but not limited to cholesterol and triglycerides, glucose, insulin, leptin, adiponectin, ketone bodies, free fatty acids, and glycerol, are measured using methods known to those skilled in the art.
The anti-obesity, insulin sensitizing, hyperinsulinemia-reversing, and hepatic steatosis-reversing potential of compounds of the present invention are exemplified through the actions of example compound I-181. […] Results of the reduction in total body weight measurements after treatment of high fat diet-fed DIO rats with compound I-181 are shown in FIG. 11. The degree of body weight reduction paralleled plasma drug levels measured at the end of the study. […] The plasma leptin levels for animals receiving the standard chow diet (lean controls) were also evaluated to determine the extent of parameter normalization produced by compound I-181. […] Results of the reduction in plasma insulin measurements after treatment of high fat diet-fed DIO rats with compound I-181 are shown in FIG. 12. […] Results of the reduction in hepatic triglyceride and cholesterol measurements after treatment of high fat diet-fed DIO rats with compound I-181 are shown in FIG. 13. […] Results of diet-induced obesity studies measuring the effect of compound I-181 on plasma cholesterol and plasma triglycerides are shown in Table 4 below. Data shown are mean values for n=14 animals per group±SEM.

COc1ccccc1[C@H](Cn1c(=O)n(C(C)(C)C(=O)O)c(=O)c2c(C)c(-c3ncco3)sc21)OC1CCOCC1 [I-181, 2-[1-[2-(2-methoxyphenyl)-2-(oxan-4-yloxy)ethyl]-5-methyl-6-(1,3-oxazol-2-yl)-2,4-dioxo-1H,2H,3H,4H-thieno[2,3-d]pyrimidin-3-yl]-2-methylpropanoic acid]
MIC [1]: >64 µg/mL | MIC ([1]; Candida albicans, ATCC90028, 48 h, read-out: MIC): > 64 µg/mL | MIC [2]: >64 µg/mL | MIC ([2]; Pichia kudriavzevii, ATCC6258, 48 h, read-out: MIC): > 64 µg/mL | MIC [3]: >64 µg/mL | MIC ([3]; Lodderomyces parapsilosis, ATCC22019, 48 h, read-out: MIC): > 64 µg/mL | RQ relative to baseline [4]: 80-90 % of its baseline value | RQ, dose dependence ([4]; doses of 3, 10, 30 and 100 mg/kg): dose-dependent decreases in RQ | plasma cholesterol and triglyceride levels ([5]; high sucrose diet rats, 3, 10, 30 mg/kg once daily oral gavage, two weeks): dose-dependent reduction in plasma cholesterol and triglyceride levels | Plasma Cholesterol ([5]; 3 mg/kg, Day 7): 94 ± 3 mg/dL | Plasma Triglycerides ([5]; 3 mg/kg, Day 7): 154 ± 15 mg/dL | Plasma Cholesterol ([5]; 3 mg/kg, Day 14): 96 ± 3 mg/dL | Plasma Triglycerides ([5]; 3 mg/kg, Day 14): 171 ± 16 mg/dL | Plasma Cholesterol ([5]; 3 mg/kg, Prebleed): 96 ± 2 mg/dL | Plasma Triglycerides ([5]; 3 mg/kg, Prebleed): 144 ± 12 mg/dL | Plasma Cholesterol ([5]; 10 mg/kg, Day 7): 82 ± 3 mg/dL | Plasma Triglycerides ([5]; 10 mg/kg, Day 7): 139 ± 10 mg/dL | Plasma Cholesterol ([5]; 10 mg/kg, Day 14): 87 ± 3 mg/dL | Plasma Triglycerides ([5]; 10 mg/kg, Day 14): 165 ± 15 mg/dL | Plasma Cholesterol ([5]; 10 mg/kg, Prebleed): 96 ± 3 mg/dL | Plasma Triglycerides ([5]; 10 mg/kg, Prebleed): 183 ± 18 mg/dL | Plasma Cholesterol ([5]; 30 mg/kg, Day 7): 78 ± 3 mg/dL | Plasma Triglycerides ([5]; 30 mg/kg, Day 7): 116 ± 9 mg/dL | Plasma Cholesterol ([5]; 30 mg/kg, Day 14): 78 ± 2 mg/dL | Plasma Triglycerides ([5]; 30 mg/kg, Day 14): 118 ± 14 mg/dL | Plasma Cholesterol ([5]; 30 mg/kg, Prebleed): 99 ± 3 mg/dL | Plasma Triglycerides ([5]; 30 mg/kg, Prebleed): 166 ± 13 mg/dL
